In patent US11903945B2, “Methods of treating antipsychotic-induced weight gain with miricorilant” (Corcept Therapeutics Incorporated, priority 2019, dated 2024):
Where “and” joins values, the source holds several entries; their conditions need not be identical. Equal entries are not always repeated. Entries after “also recorded” stand apart in the source; their conditions may differ. Where two headings read alike, the source gives them in different places.

How the values were obtained:
[1] = patients, cited from earlier work; for Mean body weight increase over a period of ten weeks: Allison et al., Am J. Psychiatry 1999
[2] = for Triglycerides increase from baseline on Day 8 / Triglycerides increase from baseline on Day 15: listed as miricorilant = MIRI 600 mg/day + OLZ, unit given in Table 1, not in Table 2; for Body weight increase from baseline, percent of baseline, day 8 / Body weight increase from baseline, percent of baseline, day 15: from Table 2 with Table 1 baselines
Description: The dose level tested in our Phase 1b trial was 600 mg/day.
A 2-week, single-center, double-blind, randomized, placebo-controlled study was conducted in healthy male subjects age 18-55 years with BMI between 18-25 kg/m^2 and a stable body weight (defined as the Day 1 pre-dose body weight to be within ±2.0% of screening body weight). […] Food was freely available to all subjects during the study. The difference in mean change in absolute body weight after administration of OLZ+PBO compared to OLZ+MIRI was evaluated using a repeated measures model with imputation applied to missing values.
(HOMA2-IR values were calculated from fasted glucose and insulin levels using the HOMA (HOMA2 Model) Calculator® application programming interface for SAS (Oxford University 2013, available at the website www.dtu.ox.ac.uk/homacalculator)).

[3] = olanzapine prescribing information; cited from earlier work
[4] = patients; doubled from 1.3±0.5 at baseline; Ebenbichler et al. 2003; cited from earlier work
[5] = type: in vivo; conditions: female rats; for Study day from which body weight reduction became statistically significant: treatment started Day 35
Description: On day 35, the rodents were randomized to 4 different interventions and remained on study until day 57. The four intervention groups were: OLZ+vehicle daily by oral gavage; OLZ+2 mg/kg/day miricorilant once daily; OLZ+1 mg/kg miricorilant twice daily; and OLZ+10 mg/kg/day miricorilant once daily. A fifth group, a vehicle-only group (n=12), was included as a control for the entirety of the 57 days.
Starting at week 6, either miricorilant (MIRI, 3 dosing regimens) or vehicle 2 was administered orally. […] The vehicle-only group was included as a control for the 8-week duration of the study. Efficacy was assessed based on body weight, food consumption, mortality, and clinical observations.
The articles were stored refrigerated between dosing.
Body weights were measured and recorded three times weekly during the acclimation period, every other day beginning on Day −1, and prior to termination on Day 57. Food consumption was measured and recorded daily beginning on Day −14. Body weights and food consumption were measured within 2 hours of the initial time on Day −1. Any changes in bodyweight greater than 15 grams (g) and changes in food consumption greater than 5 g were verified. Food jars were weighed twice for precision during food jar changes.

progesterone receptor = target: T1, progesterone receptor (Homo sapiens, UniProt P06401); conditions: cited from earlier work
T1 sequence (P06401 1-933): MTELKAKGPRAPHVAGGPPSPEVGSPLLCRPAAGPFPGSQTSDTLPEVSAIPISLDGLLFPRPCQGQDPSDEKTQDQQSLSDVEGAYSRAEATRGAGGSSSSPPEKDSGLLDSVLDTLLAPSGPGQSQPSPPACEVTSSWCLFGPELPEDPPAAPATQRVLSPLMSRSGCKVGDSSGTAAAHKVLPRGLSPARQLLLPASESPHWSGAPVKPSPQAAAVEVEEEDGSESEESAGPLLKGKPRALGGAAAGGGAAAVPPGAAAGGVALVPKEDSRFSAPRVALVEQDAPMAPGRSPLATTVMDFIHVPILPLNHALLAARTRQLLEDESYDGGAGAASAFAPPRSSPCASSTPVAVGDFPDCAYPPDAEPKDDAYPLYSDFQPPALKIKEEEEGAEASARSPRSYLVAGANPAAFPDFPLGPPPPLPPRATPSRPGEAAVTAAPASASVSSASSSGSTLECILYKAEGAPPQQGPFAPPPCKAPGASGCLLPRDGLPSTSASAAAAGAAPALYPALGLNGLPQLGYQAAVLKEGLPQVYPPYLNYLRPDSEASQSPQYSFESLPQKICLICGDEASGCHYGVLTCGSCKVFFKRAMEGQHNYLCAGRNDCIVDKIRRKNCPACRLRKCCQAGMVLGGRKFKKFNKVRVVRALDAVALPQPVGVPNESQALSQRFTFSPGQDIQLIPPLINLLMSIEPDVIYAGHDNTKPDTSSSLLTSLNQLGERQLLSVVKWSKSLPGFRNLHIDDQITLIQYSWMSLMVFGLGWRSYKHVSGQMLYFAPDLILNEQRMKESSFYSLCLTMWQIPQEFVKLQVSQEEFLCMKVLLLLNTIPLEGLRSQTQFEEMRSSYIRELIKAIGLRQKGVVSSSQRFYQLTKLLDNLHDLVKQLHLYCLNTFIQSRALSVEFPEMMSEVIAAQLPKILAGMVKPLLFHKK

[6] = Hunt et al., Bioorg Med Chem Lett. 2012; cited from earlier work
[7] = system: tyrosine aminotransferase (TAT) in HepG2 cells; conditions: HepG2 human liver hepatocellular carcinoma cell line; cited from earlier work
[8] = healthy male subjects, listed as miricorilant = MIRI 600 mg/day + OLZ 10 mg/day, listed as olanzapine = placebo + OLZ 10 mg/day
[9] = healthy male subjects, listed as olanzapine = placebo + OLZ 10 mg/day
[10] = healthy male subjects, listed as miricorilant = olanzapine+miricorilant, listed as olanzapine = olanzapine+placebo
[11] = Group 3: OLZ + miricorilant 1 mg/kg/dose BID
[12] = Group 4: OLZ + miricorilant 2 mg/kg/dose QD
[13] = Group 5: OLZ + miricorilant 10 mg/kg/dose QD
[14] = first week of miricorilant treatment with OLZ, P<0.01
[15] = (1 − (A/B)) × 100, MIRI 600 mg/day + OLZ vs placebo + OLZ, healthy male subjects
[16] = healthy male subjects, day not given, listed as miricorilant = olanzapine+miricorilant, listed as olanzapine = olanzapine+placebo

OCCOCCN1CCN(C2=Nc3ccccc3Sc3ccccc32)CC1 [quetiapine]
Weight gained after treatment for a "short time" ([1]; Allison et al. 2001): about 3 kg

Cc1cc2c(s1)Nc1ccccc1N=C2N1CCN(C)CC1 [olanzapine, reference compound]
Body weight increase from baseline on Day 8 [2, 8]: 3.5 kg and 3.49 kg
Body weight increase from baseline on Day 15 [2, 8]: 5.0 kg and 4.99 kg
HOMA2-IR increase from baseline on Day 8 [2, 8]: 1.15
Insulin increase from baseline on Day 8 [2, 8]: 9.14 mIU/L
Insulin increase from baseline on Day 15 [2, 8]: 9.65 mIU/L
Triglycerides increase from baseline on Day 8 [2, 9]: 1.09 mmol/L
Triglycerides increase from baseline on Day 15 [2, 9]: 0.62 mmol/L
Insulin increase from baseline, percent, day 15 [2, 10]: 127%
Triglycerides increase from baseline, percent, day 8 [2, 10]: 115%
Triglycerides increase from baseline, percent, day 15 [2, 10]: 65%
Body weight increase from baseline, percent of baseline, day 8 [2, 10]: 4.9%
Body weight increase from baseline, percent of baseline, day 15 [2, 10]: 6.9%
Number of participants who discontinued the study due to elevated liver enzymes ([2]; male, human, in vivo, 14 days): 5
Adult patients with triglyceride increases of ≥50 mg/dL at 12 weeks [3]: ~40%
Adult patients with triglyceride increases of ≥50 mg/dL at 48 weeks [3]: more than 60%
HOMA-IR after 8 weeks of olanzapine treatment [4]: 2.6±1.4 mmol/mU·L
Weight gained after about 40 weeks of administration ([1]; Allison et al. 2001): 7 to 8 kg

O=c1[nH]c(=O)c(Cc2cccc(C(F)(F)F)c2)c([C@H]2CC[C@H](c3ccccc3)CC2)[nH]1 [miricorilant, (E)-6-(4-Phenylcyclohexyl)-5-(3-trifluoromethylbenzyl)-1H-pyrimidine-2,4-dione]
Study day from which body weight reduction became statistically significant ([5]; Group 3: 1 mg/kg/dose BID): 36
Body weight reduction at Day 57 vs olanzapine control Group 2 ([…] g) [5, 11]: 13%
Least Squares (LS) mean body weight at Day 57 [5, 11]: 268 g
Group mean body weight at Day 57 ([5]; Group 3: OLZ + miricorilant 1 mg/kg/dose BID oral, Days 35-57): 269 g
Study day from which body weight reduction became statistically significant ([5]; Group 4: 2 mg/kg/dose QD): 38
Body weight reduction at Day 57 vs olanzapine control Group 2 ([…] g) [5, 12]: 12%
Least Squares (LS) mean body weight at Day 57 [5, 12]: 272 g
Loss compared with basal body weight (vehicle-only control) at the end of the study [5, 12]: no significant loss; also recorded: no reduction
Group mean body weight at Day 57 ([5]; Group 4: OLZ + miricorilant 2 mg/kg/dose QD oral, Days 35-57): 272 g
Study day from which body weight reduction became statistically significant ([5]; Group 5: 10 mg/kg/dose QD): 36
Body weight reduction at Day 57 vs olanzapine control Group 2 ([…] g) [5, 13]: 17%
Least Squares (LS) mean body weight at Day 57 [5, 13]: 259 g
Group mean body weight at Day 57 ([5]; Group 5: OLZ + miricorilant 10 mg/kg/dose QD oral, Days 35-57): 258 g
Food consumption by the end of the study ([5]; all three miricorilant dose regimens with OLZ): returned to vehicle-only levels
Decrease in weight compared to the OLZ+vehicle group ([5]; days 35-57, all three miricorilant regimens with OLZ, p<0.05): 12-17%
Food consumption lower compared to olanzapine-only animals [5, 14]: 16%-23%
Food consumption lower compared to vehicle-only controls [5, 14]: 13%-20%
Mortality ([5]; miricorilant 1 mg/kg BID, 2 or 10 mg/kg QD with OLZ, Days 35-57): no mortalities
Effect on olanzapine-induced body weight gains and food consumption increases ([5]; oral, all three dose regimens, within first week of treatment (Week 6), maintained): completely abrogated
Affinity for the progesterone receptor (progesterone receptor): without affinity
Effect on olanzapine-induced weight gain in rats [6]: prevent olanzapine-induced weight gain
% reduction in OLZ-induced increase: HOMA2-IR, Day 8 [2, 15]: 38%
% reduction in OLZ-induced increase: HOMA2-IR, Day 15 [2, 15]: 39%
% reduction in OLZ-induced increase: body weight, Day 8 [2, 15]: 25%
% reduction in OLZ-induced increase: body weight, Day 15 [2, 15]: 22%
% reduction in OLZ-induced increase: insulin, Day 8 [2, 15]: 38%
% reduction in OLZ-induced increase: insulin, Day 15 [2, 15]: 39%
% reduction in OLZ-induced increase: triglycerides, Day 8 [2, 15]: 49%
% reduction in OLZ-induced increase: triglycerides, Day 15 [2, 15]: 45%
Difference in weight gain between treatment groups on day 15 ([2]; OLZ+MIRI vs OLZ+PBO, MMRM, P=0.017, 95% CI [−1.94, −0.19], healthy male subjects): -1.07 kg
Difference in weight gain between treatment groups on day 8 ([2]; OLZ+MIRI vs OLZ+PBO, MMRM, P=0.044, 95% CI [−1.77, −0.02], healthy male subjects): -0.9 kg
Difference in triglyceride increase on day 8 ([2]; OLZ+MIRI vs OLZ+PBO, P<0.001, healthy male subjects): -0.53 mmol/L
Difference in HOMA2-IR on day 15 ([2]; OLZ+MIRI vs OLZ+PBO, P=0.007, healthy male subjects): −0.47
Difference in HOMA2-IR on day 8 ([2]; OLZ+MIRI vs OLZ+PBO, P=0.012, healthy male subjects): −0.44
Difference in plasma insulin increase on day 8 ([2]; OLZ+MIRI vs OLZ+PBO, P=0.013, healthy male subjects): −3.49 mIU/L
Difference in triglyceride increase on day 15 ([2]; OLZ+MIRI vs OLZ+PBO, P=0.057, healthy male subjects): -0.28 mmol/L
HOMA2-IR level relative to baseline [2, 16]: less than 2 fold
Insulin resistance (HOMA2-IR) increase from baseline, percent [2, 16]: about 90%
Body weight increase from baseline on Day 8 [2, 8]: 2.6 kg and 2.59 kg
Body weight increase from baseline on Day 15 [2, 8]: 3.9 kg and 3.91 kg
HOMA2-IR increase from baseline on Day 8 [2, 8]: 0.71
HOMA2-IR increase from baseline on Day 15 [2, 8]: 0.74
Insulin increase from baseline on Day 8 [2, 8]: 5.65 mIU/L
Insulin increase from baseline on Day 15 [2, 8]: 5.91 mIU/L
Triglycerides increase from baseline on Day 8 [2, 9]: 0.56 mmol/L
Triglycerides increase from baseline on Day 15 [2, 9]: 0.34 mmol/L
Insulin increase from baseline, percent, day 8 [2, 10]: about 92%
Insulin increase from baseline, percent, day 15 [2, 10]: 97%
Triglycerides increase from baseline, percent, day 8 [2, 10]: about 60%
Triglycerides increase from baseline, percent, day 15 [2, 10]: 37%
Body weight increase from baseline, percent of baseline, day 8 [2, 10]: about 3.6%
Body weight increase from baseline, percent of baseline, day 15 [2, 10]: 5.4%
ALT increase from baseline, percent, day 7 ([2]; human, in vivo): 152%
ALT increase from baseline, percent, day 12 ([2]; human, in vivo): 528%
AST increase from baseline, percent, day 7 ([2]; human, in vivo): 71%
AST increase from baseline, percent, day 12 ([2]; human, in vivo): 192%
Difference in ALT levels between treatment arms on day 12 ([2]; human, in vivo): −49.99 IU/L
Difference in AST levels between groups on day 12 ([2]; human, in vivo): −32.24 IU/L
Tolerability of the dose ([2]; human, in vivo): very well tolerated
Difference in plasma insulin increase on day 15 ([2]; printed as between PBO and OLZ, P=0.007, healthy male subjects): 3.74 mIU/L

CN1CCN(C2=Nc3cc(Cl)ccc3Nc3ccccc32)CC1 [clozapine]
Mean body weight increase over a period of ten weeks [1]: 4.45 kg

CC#C[C@]1(O)CC[C@H]2[C@@H]3CCC4=CC(=O)CCC4=C3[C@@H](c3ccc(N(C)C)cc3)C[C@@]21C [mifepristone]
Effect on activity of tyrosine aminotransferase (TAT) in HepG2 cells [7]: decreases

O=C1NCCN1CCN1CCC(c2cn(-c3ccc(F)cc3)c3ccc(Cl)cc23)CC1 [sertindole]
Mean body weight increase over a period of ten weeks [1]: 2.92 kg

Cc1nc2n(c(=O)c1CCN1CCC(c3noc4cc(F)ccc34)CC1)CCCC2 [risperidone]
Weight gained over 8-12 weeks ([1]; Allison et al. 2001): 2 to 3 kg
